According to US20230286970A1, “NOVEL OXADIAZOLE-BASED SELECTIVE HDAC6 INHIBITORS” (ITALFARMACO S.P.A., priority 2020, published 2023):
pIC50: −log10 of the molar value.

What was measured:
[1] = biological target: recombinant human HDAC6 (Homo sapiens (Human), UniProt Q9UBN7); experiment: Enzymatic screening, HDAC6 inhibition (fluorogenic FdL_G substrate); type: biochemical
Outline: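 Enzyme was preincubated with compound (8 doses, triplicate, 1% DMSO) in 25 mM Tris-HCl pH 8, 130 mM NaCl, 0.05% Tween-20, 10% glycerol, with BSA. A FLUOR DE LYS-Green substrate was then added, and fluorescence was read after developer plus 2 μM TSA.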

[2] = biological target: recombinant human HDAC1 (Homo sapiens (Human), UniProt Q13547); experiment: Enzymatic screening, HDAC1 inhibition (fluorogenic FdL_G substrate); type: biochemical
Chain of recombinant human HDAC1 (Q13547 whole entry, canonical isoform): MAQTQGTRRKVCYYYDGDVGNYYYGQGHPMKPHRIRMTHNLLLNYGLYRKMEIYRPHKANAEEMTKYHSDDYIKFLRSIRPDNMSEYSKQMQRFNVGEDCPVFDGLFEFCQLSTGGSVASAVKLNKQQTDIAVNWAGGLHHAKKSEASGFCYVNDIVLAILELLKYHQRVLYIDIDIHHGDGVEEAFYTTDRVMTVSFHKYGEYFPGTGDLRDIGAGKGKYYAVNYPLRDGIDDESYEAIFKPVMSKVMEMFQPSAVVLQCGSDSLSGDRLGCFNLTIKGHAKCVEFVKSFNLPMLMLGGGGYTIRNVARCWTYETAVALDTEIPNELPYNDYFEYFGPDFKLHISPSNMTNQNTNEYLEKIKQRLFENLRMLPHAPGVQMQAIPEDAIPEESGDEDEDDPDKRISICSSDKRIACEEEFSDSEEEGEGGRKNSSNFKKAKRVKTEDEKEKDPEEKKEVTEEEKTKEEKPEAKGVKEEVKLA
Experimental: For each test compound, 100× concentrated DMSO solutions at 8 doses were prepared and then diluted in assay buffer (25 mM Tris-HCl, pH 8, 130 mM NaCl, 0.05% Tween-20, 10% Glycerol) to obtain 5× concentrated solutions in relation to the final concentrations (typical final concentration range—6.4-200000 nM or 0.18-50000 nM, final DMSO content—1%). Then 10 μL solution of each test compound concentration were placed on a 96-well plate in triplicate and 15 μL of 3.33× concentrated enzyme solution in the assay buffer containing 3.33× concentrated BSA (final BSA concentration—2 mg/mL for HDAC4, HDAC5 and HDAC9 or 1 mg/mL for other isoforms) and in the case of HDAC6-3.33× concentrated TCEP (final TCEP concentration—200 μM) were added to each well. After a period of preincubation (incubation times and temperatures vary for different isoforms and are shown in table 1) 25 μL of solution containing the substrate were added. As substrate, FLUOR DE LYS® deacetylase substrate (Enzo Life Sciences, cat: BML-KI104, FdL), FLUOR DE LYS®-Green substrate (Enzo Life Sciences, cat: BML-KI572, FdL_G) or Boc-Lys(Tfa)-AMC (Bachem, cat: 4060676.005, Tfal)—2× concentrated solution in assay buffer were used. Following a reaction period (reaction times and temperatures vary for different isoforms and are reported in Table 1), 50 μL of the development solution consisting of concentrate FLUOR DE LYS® developer I (Enzo Life Sciences, ca: BML-KI105), diluted 200 times in buffer (50 mM Tris-HCl, pH 8, 137 mM NaCl, 2.7 mM KCl, 1 mM MgCl2) plus 2 μM TSA was added and, after 25 minutes at room temperature in the dark, using the Victor 1420 Multilabel Counter Perkin Elmer Wallac instrument, the fluorescence reading was carried out.

Chain of recombinant human HDAC6 (Q9UBN7 whole entry): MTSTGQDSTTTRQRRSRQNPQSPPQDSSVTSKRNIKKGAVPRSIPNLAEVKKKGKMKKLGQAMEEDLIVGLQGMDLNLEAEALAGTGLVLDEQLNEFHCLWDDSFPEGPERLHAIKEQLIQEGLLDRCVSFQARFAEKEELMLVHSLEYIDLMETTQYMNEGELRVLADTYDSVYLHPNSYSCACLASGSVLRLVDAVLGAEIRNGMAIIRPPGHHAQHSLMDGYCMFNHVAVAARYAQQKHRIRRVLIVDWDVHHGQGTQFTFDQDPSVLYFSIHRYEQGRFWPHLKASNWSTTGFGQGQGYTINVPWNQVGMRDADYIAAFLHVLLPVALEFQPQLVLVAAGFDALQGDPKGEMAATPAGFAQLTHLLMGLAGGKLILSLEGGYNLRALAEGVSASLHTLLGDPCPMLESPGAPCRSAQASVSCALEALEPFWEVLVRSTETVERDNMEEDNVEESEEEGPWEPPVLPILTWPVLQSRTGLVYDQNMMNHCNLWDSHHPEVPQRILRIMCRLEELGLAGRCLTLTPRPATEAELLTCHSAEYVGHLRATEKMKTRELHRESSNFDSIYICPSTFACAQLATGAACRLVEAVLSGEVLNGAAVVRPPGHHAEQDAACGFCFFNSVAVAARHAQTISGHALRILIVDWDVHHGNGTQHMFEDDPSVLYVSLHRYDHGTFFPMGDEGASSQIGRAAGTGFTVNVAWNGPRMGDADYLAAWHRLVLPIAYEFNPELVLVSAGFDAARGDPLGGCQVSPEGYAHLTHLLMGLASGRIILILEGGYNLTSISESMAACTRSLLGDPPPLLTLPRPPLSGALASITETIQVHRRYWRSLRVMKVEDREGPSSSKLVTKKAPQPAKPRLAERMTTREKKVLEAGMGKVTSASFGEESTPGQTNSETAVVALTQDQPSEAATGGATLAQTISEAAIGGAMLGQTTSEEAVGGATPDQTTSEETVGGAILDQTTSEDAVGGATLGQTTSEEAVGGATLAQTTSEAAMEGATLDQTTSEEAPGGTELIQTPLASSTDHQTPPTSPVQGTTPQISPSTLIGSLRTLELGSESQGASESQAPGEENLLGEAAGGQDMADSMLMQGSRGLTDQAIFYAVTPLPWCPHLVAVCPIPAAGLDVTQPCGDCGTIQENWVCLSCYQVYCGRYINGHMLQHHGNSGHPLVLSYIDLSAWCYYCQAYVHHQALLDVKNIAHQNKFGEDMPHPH

A pIC50 [1] of 7.51 and a pIC50 [2] of less than 3.70 were found for CS(=O)(=O)NCCC(c1ccc(-c2nnc(C(F)F)o2)cn1)n1cc(-c2ccc(N)nc2)nn1 (stereo not shown) [Compd. 293, N-(3-(4-(6-aminopyridin-3-yl)-1H-1,2,3-triazol-1-yl)-3-(5-(5-(difluoromethyl)-1,3,4-oxadiazol-2-yl)pyridin-2-yl)propyl)methanesulfonamide] in this work.
A pIC50 [1] of 6.82 and a pIC50 [2] of less than 3.70 were found for CN1CCN(c2ccc(-c3nnn(Cc4ccc(-c5nnc(C(F)F)o5)cc4)n3)cc2)CC1 [compound 213, 2-(difluoromethyl)-5-(4-((5-(4-(4-methylpiperazin-1-yl)phenyl)-2H-tetrazol-2-yl)methyl)phenyl)-1,3,4-oxadiazole] in this work.
A pIC50 [1] of 7.46 and a pIC50 [2] of less than 3.00 were found for Nc1ccc(-c2cn(Cc3ncc(-c4nnc(C(F)F)o4)cc3F)nn2)cn1 [compound 304, 5-[1-[[5-[5-(difluoromethyl)-1,3,4-oxadiazol-2-yl]-3-fluoropyridin-2-yl]methyl]triazol-4-yl]pyridin-2-amine] in this work.
A pIC50 [1] of 6.96 and a pIC50 [2] of less than 3.70 were found for O=C(Nc1cncc(-c2nnn(Cc3ccc(-c4nnc(C(F)F)o4)cc3)n2)c1)N1CCOCC1 [compound 199, N-(5-(2-(4-(5-(difluoromethyl)-1,3,4-oxadiazol-2-yl)benzyl)-2H-tetrazol-5-yl)pyridin-3-yl)morpholine-4-carboxamide] in this work.
A pIC50 [1] of 7.60 and a pIC50 [2] of 3.74 were found for Fc1cc(-c2nnc(C(F)F)o2)ccc1Cn1nnc(-c2cccc(-c3nc4c([nH]3)CCNC4)c2)n1 [compound 354, 2-(difluoromethyl)-5-[3-fluoro-4-[[5-[3-(4,5,6,7-tetrahydro-1H-imidazo[4,5-c]pyridin-2-yl)phenyl]tetrazol-2-yl]methyl]phenyl]-1,3,4-oxadiazole] in this work.
A pIC50 [1] of 7.19 and a pIC50 [2] of less than 3.70 were found for CN1CC(C(=O)Nc2cccc(-c3cn(Cc4ccc(-c5nnc(C(F)F)o5)cc4)nn3)c2)C1 [compound 149, N-(3-(1-(4-(5-(difluoromethyl)-1,3,4-oxadiazol-2-yl)benzyl)-1H-1,2,3-triazol-4-yl)phenyl)-1-methylazetidine-3-carboxamide] in this work.
A pIC50 [1] of 7.09 and a pIC50 [2] of less than 3.70 were found for CCS(=O)(=O)N1CCN(Cc2ccc(-c3cn(Cc4c(F)cc(-c5nnc(C(F)F)o5)cc4F)nn3)cc2)CC1 [compound 169, 2-(difluoromethyl)-5-(4-((4-(4-((4-(ethylsulfonyl)piperazin-1-yl)methyl)phenyl)-1H-1,2,3-triazol-1-yl)methyl)-3,5-difluorophenyl)-1,3,4-oxadiazole] in this work.
A pIC50 [1] of 6.84 and a pIC50 [2] of 3.00 were found for CNc1ccc2cc(-c3nnn(Cc4ccc(-c5nnc(C(F)F)o5)cc4F)n3)ccc2n1 [compound 401, 6-[2-[[4-[5-(difluoromethyl)-1,3,4-oxadiazol-2-yl]-2-fluorophenyl]methyl]tetrazol-5-yl]-N-methylquinolin-2-amine] in this work.
A pIC50 [1] of 7.39 and a pIC50 [2] of less than 3.00 were found for Nc1nc2ccc(-c3cn(Cc4ccc(-c5nnc(C(F)F)o5)cc4Cl)nn3)cc2s1 [compound 340, 6-[1-[[2-chloro-4-[5-(difluoromethyl)-1,3,4-oxadiazol-2-yl]phenyl]methyl]triazol-4-yl]-1,3-benzothiazol-2-amine] in this work.
A pIC50 [1] of 6.46 and a pIC50 [2] of 3.00 were found for FC(F)c1nnc(-c2ccc(Cn3nnc(-c4ccc5cnccc5c4)n3)c(Cl)c2)o1 [compound 426, 2-(3-chloro-4-((5-(isoquinolin-6-yl)-2H-tetrazol-2-yl)methyl)phenyl)-5-(difluoromethyl)-1,3,4-oxadiazole] in this work.
A pIC50 [1] of 7.60 and a pIC50 [2] of less than 3.00 were found for Cn1c(N)nc2cc(-c3nnn(Cc4ccc(-c5nnc(C(F)F)o5)c(F)c4F)n3)ccc21 [compound 371, 5-[2-[[4-[5-(difluoromethyl)-1,3,4-oxadiazol-2-yl]-2,3-difluorophenyl]methyl]tetrazol-5-yl]-1-methylbenzimidazol-2-amine] in this work.
